Source: ChEMBL document CHEMBL3286321, “Facile Synthesis and Preliminary Structure-Activity Analysis of New Sulfonamides Against Trypanosoma brucei” (ACS Med Chem Lett, 2014)
pIC50: −log10 of the molar value.

Key:
[1] = Selectivity index, ratio of IC50 for HEK293 cells to IC50 for Trypanosoma brucei brucei 427; type: toxicity, cell-based; settings: human, read-out: Ratio IC50
[2] = system: Trypanosoma brucei brucei; assay: Trypanocidal activity against logarithmic phase of Trypanosoma brucei brucei 427 assessed as inhibition of parasite viability after 48 hrs by Alamar blue viability assay; type: functional, organism-based; settings: Trypanosoma brucei, 427, 48 h
[3] = system: Trypanosoma brucei brucei; assay: Trypanocidal activity against logarithmic phase of Trypanosoma brucei brucei 427 assessed as inhibition of parasite viability at 10 uM after 48 hrs by Alamar blue viability assay; type: functional; settings: Trypanosoma brucei, 427, 48 h

## CCS(=O)(=O)N1CCCc2ccc(NS(=O)(=O)c3cccs3)cc21
[1]
  selectivity ratio: 20.8
[2]
  pIC50: 5.40

## CCS(=O)(=O)N1CCCc2ccc(NS(=O)(=O)c3ccccc3F)cc21
[1]
  selectivity ratio: 32

## CCS(=O)(=O)N1CCCc2ccc(NS(=O)(=O)c3ccc(F)cc3)cc21
[1]
  selectivity ratio: 11.8
[2]
  pIC50: 5.11

## CCS(=O)(=O)N1CCCc2ccc(NS(=O)(=O)c3cccc(F)c3)cc21
[1]
  selectivity ratio: 11.2
[2]
  pIC50: 5.11

## CCS(=O)(=O)N1CCCc2ccc(NS(=O)(=O)c3c(F)cccc3F)cc21
[3]
  inhibition at 10 µM: 82%

## CCS(=O)(=O)N1CCCc2ccc(NS(=O)(=O)c3c(F)c(F)c(F)c(F)c3F)cc21
[3]
  inhibition at 10 µM: 94%

## CCS(=O)(=O)N1CCCc2ccc(NS(=O)(=O)c3ccc(Br)cc3F)cc21
[1]
  selectivity ratio: 9
[2]
  pIC50: 5.00

## CCS(=O)(=O)N1CCCc2ccc(NS(=O)(=O)c3ccc(Br)s3)cc21
[1]
  selectivity ratio: 7.7
[2]
  pIC50: 4.95

## CCS(=O)(=O)N1CCCc2ccc(NS(=O)(=O)c3ccc(Cl)s3)cc21
[1]
  selectivity ratio: 6.9
[2]
  pIC50: 4.88

## CCS(=O)(=O)N1CCCc2ccc(NS(=O)(=O)c3ccc(C)cc3)cc21
[1]
  selectivity ratio: 25.8
[2]
  pIC50: 5.47

## CCS(=O)(=O)Nc1ccc2c(c1)N(S(=O)(=O)CC)CCC2
[3]
  inhibition at 10 µM: 14%

## CCS(=O)(=O)N1CCCc2ccc(NS(=O)(=O)CC(F)(F)F)cc21
[3]
  inhibition at 10 µM: 18%

## CCCS(=O)(=O)N1CCCc2ccc(NS(=O)(=O)c3ccc(C)cc3)cc21
[1]
  selectivity ratio: 29
[2]
  pIC50: 5.74

## CCCS(=O)(=O)N1CCCc2ccc(NS(=O)(=O)c3ccc(C(C)C)cc3)cc21
[1]
  selectivity ratio: 8.9
[2]
  pIC50: 5.77

## CCCS(=O)(=O)N1CCCc2ccc(NS(=O)(=O)c3ccc(-c4ccccc4)cc3)cc21
[1]
  selectivity ratio: 16.6
[2]
  pIC50: 5.24

## CCCS(=O)(=O)N1CCCc2ccc(NS(=O)(=O)c3ccccc3F)cc21
[1]
  selectivity ratio: 24.3
[2]
  pIC50: 5.46

## CCCS(=O)(=O)N1CCCc2ccc(NS(=O)(=O)c3cccs3)cc21
[3]
  inhibition at 10 µM: < 10%

## CCCS(=O)(=O)N1CCCc2ccc(NS(=O)(=O)c3ccccc3C)cc21
[3]
  inhibition at 10 µM: 11%

## CCCS(=O)(=O)N1CCCc2ccc(NS(=O)(=O)c3cccc(C)c3)cc21
[3]
  inhibition at 10 µM: < 10%

## CCCS(=O)(=O)N1CCCc2ccc(NS(=O)(=O)c3ccc(C)cc3C)cc21
[1]
  selectivity ratio: 10.4
[2]
  pIC50: 5.05

## CCCS(=O)(=O)N1CCCc2ccc(NS(=O)(=O)c3cc(C)cc(C)c3)cc21
[3]
  inhibition at 10 µM: < 10%

## CCCS(=O)(=O)N1CCCc2ccc(NS(=O)(=O)c3c(C)c(C)c(C)c(C)c3C)cc21
[1]
  selectivity ratio: 11.4
[2]
  pIC50: 5.10

## O=S(=O)(Nc1ccc2c(c1)N(S(=O)(=O)c1cccs1)CCC2)c1cccs1
[3]
  inhibition at 10 µM: 35%

## Cc1ccc(S(=O)(=O)Nc2ccc3c(c2)N(S(=O)(=O)c2cccs2)CCC3)cc1
[1]
  selectivity ratio: 2.5
[2]
  pIC50: 5.51

## Cc1ccc(S(=O)(=O)N2CCCc3ccc(NS(=O)(=O)c4cccs4)cc32)cc1
[1]
  selectivity ratio: 1.7
[2]
  pIC50: 5.10

## Cc1ccc(S(=O)(=O)Nc2ccc3c(c2)N(S(=O)(=O)c2ccc(C)cc2)CCC3)cc1
[1]
  selectivity ratio: 1.8
[2]
  pIC50: 5.41
